Results taken from ChEMBL document CHEMBL4261502, “Histone lysine methyltransferase structure activity relationships that allow for segregation of G9a inhibition and anti-Plasmodium activity” (Medchemcomm, 2017).

System: Plasmodium falciparum
Test: Antiplasmodial activity against Plasmodium falciparum 3D7 after 3 days by SYBR green1 dye based assay
Assay type: functional, organism-based
Conditions: 3D7, 72 h

COc1cc2c(NC3CCN(C)CC3)nc(N3CCCN(C)CC3)nc2cc1OCCN(C)C
IC50: > 2000 nM

COc1cc2c(NC3CCN(C)CC3)nc(N3CCCN(C)CC3)nc2cc1OCCCN1CCCC1
IC50: > 2000 nM

COc1cc2c(NC3CCN(C)CC3)nc(N3CCCN(C)CC3)nc2cc1OCCCN1CCCCC1
IC50: > 2000 nM

COc1cc2c(NC3CCN(C)CC3)nc(N3CCCN(C)CC3)nc2cc1OCc1ccccc1
IC50: 43 nM

COc1cc2nc(N3CCCN(C)CC3)nc(NC3CCN(Cc4ccccc4)CC3)c2cc1OC
IC50: 43 nM

COc1cc2nc(N3CCN(C)CC3)nc(NC3CCN(C)CC3)c2cc1OC
IC50: > 300 nM

COc1cc2c(NC3CCN(C)CC3)nc(N3CCCN(C)CC3)nc2cc1OCCCN(C)C
IC50: > 2000 nM

COc1cc2nc(N3CCCN(C)CC3)nc(NC3CCN(C)CC3)c2cc1OC
IC50: > 300 nM
